Test results reported in patent US12187713B2, “Immunomodulators, compositions and methods thereof” (Betta Pharmaceuticals Co., Ltd, priority 2019, dated 2025).

Tests used:
PD-1/PD-L1 = PD-1/PD-L1 (Homo sapiens (Human), UniProt Q9NZQ7); test: PD-1/PD-L1 Binding Assay (Alphascreen)
Outline: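 PD-1/PD-L1 binding detected by anti-6×His acceptor and streptavidin donor beads after 120 min in the dark at 25 °C. Beforehand, the two proteins were incubated 15 min at 25 °C with inhibitor at 0.015–300 nM (1% DMSO). IC50 comes from a log concentration–response curve.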

[1] = Pharmacokinetic Assay, single oral dose 100 mg/kg (Table 11); type: in vivo; conditions: mouse, C57 female mice, oral (intragastric), plasma
Procedure: Adult C57 female mice were received to single-dose of the test compounds with […], 10% Kolliphor^@HS 15 and 80% saline as excipients, the mice (n=9) were giving oral administration (intragastric administration) with the compounds at a dose of 100 mg/kg. Time of blood collection: 15 min, 30 min, 1 h, 2 h, 4 h, 7 h, 24 h. Approximately 0.1 mL of whole blood was collected from retro-orbital venous plexus of 3 mice at each time point, and placed into tubes that contained K2-EDTA as an anticoagulant. The whole blood was centrifuged at 4° C. and 4000 rpm for 10 min. The plasma was transferred into centrifuge tubes, and stored at −20° C. until being analyzed. Concentrations of test compounds in the plasma samples were analyzed with liquid chromatography-tandem mass spectrometry (LC-MS/MS). Plasma concentration-time data of individual animals was analyzed using Microsoft Excel 2010. Non-compartmental model was introduced in concentration analysis. The pharmacokinetic parameters of the test compounds were calculated using WinNonlin (version 4.1; Pharsight) software.

[2] = Pharmacokinetic Assay, single oral dose 5 mg/kg (Table 12); type: in vivo; conditions: mouse, plasma concentration, C57 female mice, single oral dose 5 mg/kg
Outline: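 Adult female C57 mice (n=3) got one intragastric dose of 5 mg/kg in 15% DMSO, 10% Kolliphor HS 15, 75% saline. Retro-orbital blood was taken at 30 min, 2 h and 4 h into K2-EDTA. Plasma levels were measured by LC-MS/MS.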

PD-1/PD-L1, sequence (Q9NZQ7 19-238): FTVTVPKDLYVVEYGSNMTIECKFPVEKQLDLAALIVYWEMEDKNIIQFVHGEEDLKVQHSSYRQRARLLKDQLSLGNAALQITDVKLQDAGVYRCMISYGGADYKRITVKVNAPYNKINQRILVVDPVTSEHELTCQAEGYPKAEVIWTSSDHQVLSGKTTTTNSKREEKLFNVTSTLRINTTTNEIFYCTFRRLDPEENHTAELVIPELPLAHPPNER

Compound	IC50 (PD-1/PD-L1; range symbols) [nM]	AUC [1] [µg·h/mL]	Cmax [1] [ng/mL]	Tmax [1] [h]	IC50 (PD-1/PD-L1; numeric values) [nM]	half-life [1] [h]	concentration at 0.5 h [2] [ng/mL]	concentration at 2 h [2] [ng/mL]	concentration at 4 h [2] [ng/mL]
Cc1c(-c2nc3cc(CN4CCC[C@H]4C(=O)O)c(OC(F)F)cc3o2)cccc1-c1cccc(-c2nc3cc(CN4CCC(C)C4)cc(C(F)(F)F)c3o2)c1C (stereo partly drawn) [Example 88, ((6-(difluoromethoxy)-2-(2,2′-dimethyl-3′-(5-((3-methylpyrrolidin-1-yl)methyl)-7-(trifluoromethyl)benzo[d]oxazol-2-yl)-[1,1′-biphenyl]-3-yl)benzo[d]oxazol-5-yl)methyl)-L-proline]	0.1 to 5	2020	117000	24					
Cc1c(-c2nc3cc(CNC4COC4)c(OC(F)F)cc3o2)cccc1-c1cccc(-c2nc3cc(CN4CCC[C@H]4C(=O)O)c(OC(F)F)cc3o2)c1C [Example 28, ((6-(difluoromethoxy)-2-(3′-(6-(difluoromethoxy)-5-((oxetan-3-ylamino)methyl)benzo [d]oxazol-2-yl)-2,2′-dimethyl-[1,1′-biphenyl]-3-yl)benzo[d]oxazol-5-yl)methyl)-L-proline]		5.8	1280	1	3.2	2.79			
Cc1c(-c2nc3cc(CN4CCC[C@H]4C(=O)O)c(OC(F)F)cc3o2)cccc1-c1cccc(-c2nc3cc(CN4CCCC4)c(OC(F)F)cc3o2)c1C#N [Example 65, ((2-(2′-cyano-3′-(6-(difluoromethoxy)-5-(pyrrolidin-1-ylmethyl)benzo[d]oxazol-2-yl)-2-methyl-[1,1′-biphenyl]-3-yl)-6-(difluoromethoxy)benzo[d]oxazol-5-yl)methyl)proline]		40.4	2460	4	1.3	10.7			
Cc1c(-c2nc3cc(CN4CCC[C@H]4CO)c(OC(F)F)cc3o2)cccc1-c1cccc(-c2nc3cc(CN4CCC[C@H]4C(=O)O)c(OC(F)F)cc3o2)c1C [Example 12, ((6-(difluoromethoxy)-2-(3′-(6-(difluoromethoxy)-5-(((S)-2-(hydroxymethyl)pyrrolidin-1-yl)methyl)benzo[d]oxazol-2-yl)-2,2′-dimethyl-[1,1′-biphenyl]-3-yl)benzo[d]oxazol-5-yl)methyl)-L-proline]		14.5	1380	2	1.1	7.97			
COC[C@@H]1CCCN1Cc1cc2nc(-c3cccc(-c4cccc(-c5nc6cc(CN7CCC[C@H]7C(=O)O)c(OC(F)F)cc6o5)c4C)c3C)oc2cc1OC(F)F [Example 63, ((6-(difluoromethoxy)-2-(3′-(6-(difluoromethoxy)-5-(((S)-2-(methoxymethyl)pyrrolidin-1-yl)methyl)benzo[d]oxazol-2-yl)-2,2′-dimethyl-[1,1′-biphenyl]-3-yl)benzo[d]oxazol-5-yl)methyl)-L-proline]		43.7	2920	1	5.7	5.8			
Cc1c(-c2nc3cc(CN4CCC[C@H]4C(=O)O)c(OC(F)F)cc3o2)cccc1-c1cccc(-c2nc3cc(CN4CCCC4)cc(C(F)(F)F)c3o2)c1C [Example 100, ((6-(difluoromethoxy)-2-(2,2′-dimethyl-3′-(5-(pyrrolidin-1-ylmethyl)-7-(trifluoromethyl)benzo[d]oxazol-2-yl)-[1,1′-biphenyl]-3-yl)benzo[d]oxazol-5-yl)methyl)-L-proline]	0.1 to 5	235	18900	4		10.5			
Cc1c(-c2nc3cc(CNC[C@H]4CCCO4)c(OC(F)F)cc3o2)cccc1-c1cccc(-c2nc3cc(CN4CCC[C@H]4C(=O)O)c(OC(F)F)cc3o2)c1C [Example 29, ((6-(difluoromethoxy)-2-(3′-(6-(difluoromethoxy)-5-(((((R)-tetrahydrofuran-2-yl)methyl)amino)methyl)benzo[d]oxazol-2-yl)-2,2′-dimethyl-[1,1′-biphenyl]-3-yl)benzo[d]oxazol-5-yl)methyl)-L-proline]		42.7	3720	1	1.2	4.67			
Cc1c(-c2nc3cc(CN(C)C)c(OC(F)F)cc3o2)cccc1-c1cccc(-c2nc3cc(CN4CCC[C@H]4C(=O)O)c(OC(F)F)cc3o2)c1C [Example 16, ((6-(difluoromethoxy)-2-(3′-(6-(difluoromethoxy)-5-((dimethylamino)methyl)benzo [d]oxazol-2-yl)-2,2′-dimethyl-[1,1′-biphenyl]-3-yl)benzo[d]oxazol-5-yl)methyl)-L-proline]		20.9	1470	4	1.1	4.8			
Cc1c(-c2nc3cc(CN4CCCC4)ccc3o2)cccc1-c1cccc(-c2nc3cc(CN4CCC[C@H]4C(=O)O)c(OC(F)F)cc3o2)c1C [Example 98, ((6-(difluoromethoxy)-2-(2,2′-dimethyl-3′-(5-(pyrrolidin-1-ylmethyl)benzo[d]oxazol-2-yl)-[1,1′-biphenyl]-3-yl)benzo[d]oxazol-5-yl)methyl)-L-proline]	0.1 to 5	8.7	1010	1		4.47			
Cc1c(-c2nc3ccc(CN4CCCC4)cc3o2)cccc1-c1cccc(-c2nc3cc(CN4CCC[C@H]4C(=O)O)c(OC(F)F)cc3o2)c1C [Example 108, ((6-(difluoromethoxy)-2-(2,2′-dimethyl-3′-(6-(pyrrolidin-1-ylmethyl)benzo[d]oxazol-2-yl)-[1,1′-biphenyl]-3-yl)benzo[d]oxazol-5-yl)methyl)-L-proline]	0.1 to 5	10.1	713	1		21.7			
Cc1c(-c2nc3cc(CN4CCC[C@H]4C(=O)O)c(OC(F)F)cc3o2)cccc1-c1cccc(-c2nc3cc(CN4CCCC4(C)C)c(OC(F)F)cc3o2)c1C [Example 62, ((6-(difluoromethoxy)-2-(3′-(6-(difluoromethoxy)-5-((2,2-dimethylpyrrolidin-1-yl)methyl)benzo[d]oxazol-2-yl)-2,2′-dimethyl-[1,1′-biphenyl]-3-yl)benzo[d]oxazol-5-yl)methyl)-L-proline]		46.5	4280	4	2.6	9.69			
Cc1c(-c2nc3c(o2)CCN(CC(F)F)C3)cccc1-c1cccc(-c2nc3cc(CN4CCC[C@H]4C(=O)O)c(OC(F)F)cc3o2)c1C [Example 201, ((2-(3′-(5-(2,2-difluoroethyl)-4,5,6,7-tetrahydrooxazolo[4,5-c]pyridin-2-yl)-2,2′-dimethyl-[1,1′-biphenyl]-3-yl)-6-(difluoromethoxy)benzo[d]oxazol-5-yl)methyl)proline]	> 50						428	792	527
COc1nc(-c2cccc(-c3cccc(-c4nc5cc(CN6CCC[C@H]6C(=O)O)c(OC(F)F)cc5o4)c3C)c2C)ccc1CN1CC[C@@H](C)C1 [Example 272, ((6-(difluoromethoxy)-2-(3′-(6-methoxy-5-(((R)-3-methylpyrrolidin-1-yl)methyl)pyridin-2-yl)-2,2′-dimethyl-[1,1′-biphenyl]-3-yl)benzo[d]oxazol-5-yl)methyl)-L-proline]					1.9		66.1	198	141
Cc1c(-c2nc3c(o2)CCN(CC2CCO2)C3)cccc1-c1cccc(-c2nc3cc(CN4CCC[C@H]4C(=O)O)c(OC(F)F)cc3o2)c1C (some centres unmarked) [Example 192, ((6-(difluoromethoxy)-2-(2,2′-dimethyl-3′-(5-(oxetan-2-ylmethyl)-4,5,6,7-tetrahydrooxazolo[4,5-c]pyridin-2-yl)-[1,1′-biphenyl]-3-yl)benzo[d]oxazol-5-yl)methyl)proline]	5 to 50						469	440	268
Cc1c(-c2ccc3[nH]c(N)nc3c2)cccc1-c1cccc(-c2nc3cc(CN4CCC[C@H]4C(=O)O)c(OC(F)F)cc3o2)c1C [Example 293, ((2-(3′-(2-amino-1H-benzo[d]imidazol-5-yl)-2,2′-dimethyl-[1,1′-biphenyl]-3-yl)-6-(difluoromethoxy)benzo[d]oxazol-5-yl)methyl)-L-proline]					11		6.68	10.8	3.57
Cc1c(-c2nc3cc(CN4CCC[C@H]4C(=O)O)c(OC(F)F)cc3o2)cccc1-c1cccc(-c2nc3cc(CN4CC[C@@H](C)C4)cc(C#N)c3o2)c1C [Example 131, ((2-(3′-(7-cyano-5-(((R)-3-methylpyrrolidin-1-yl)methyl)benzo[d]oxazol-2-yl)-2,2′-dimethyl-[1,1′-biphenyl]-3-yl)-6-(difluoromethoxy)benzo[d]oxazol-5-yl)methyl)-L-proline]					2.3		108	301	470
